Experimental data as given in patent US20070123488A1, “Pharmaceutical composition comprising a zinc-hyaluronate complex for the treatment of multiple sclerosis” (RICHTER GEDEON VEGYESZETI GYAR RT., priority 2003, published 2007).
“Also recorded” adds a separate entry of the source.

Columns and labels:
[1] = test system: experimental autoimmune encephalomyelitis (EAE) provoked by myelin oligodendrocyte glycoprotein (MOG); experiment: CR EAE provoked by MOG in mice, s.c. treatment; type: in vivo; conditions: for ASC (treatment from day 5 to day 22): HMW Zn-HA 10 mg/kg, ZnCl2 equivalent to 0.8 mg/kg Zn2+; for Effect on the EAE model (in words): mice
Source text: The only adequate and widely used model available for purposes of preclinical investigations of multiple sclerosis is the experimental autoimmune encephalomyelitis (EAE) (Mokhatarian et al., Nature 309, 356-358. (1984); Raine et al., Lab. Invest. 31, 369-380. (1974)), an inflammatory disease of the central nervous system transmitted by CD4^+ T-lymphocytes. Although the clinical complexity of the model is moderate compared with the disease investigated, its use is unavoidable in a research aimed at MS. Preclinical tests of Copolymer-1 (Copaxone) and interferon beta-1 already approved for human treatment, as well as those of the new drugs under development were/are carried out using this model (Popovic et al., Ann. Neurol. 51, 215-223. (2001); Stanislaus et al., Neurosci. Lett. 333, 167-170. (2002)). […] That's why in our experiments CR EAE provoked by myelin oligodendrocyte glycoprotein (MOG) in mice has been studied (Amor et al., J. Immunol. 153, 4349-4356. (1994)). In the middle of the 1960s the effect of hyaluronan sodium salt was investigated by Romanian research workers on EAE model.
Next, the possible effect of the HMW Zn-HA (10 mg/kg in 200 μl of physiological saline, subcutane) on the time of appearance of clinical symptoms has been investigated.
Tests were carried out on groups of mice (n=6-10 mice/group) using two types of treatment: (i) prophylactic, wherein administration happens from day 5 to day 22 after inoculation of MOG, or in a single case from day 9-10 to day 28 after that (marked with # in tables 2 and 3); and (ii) therapeutic treatment, wherein administration of the Zn-HA happened from day 13 to day 28 after the EAE had been induced (marked with * in tables 2 and 3).
The mice were given 10 mg/kg HMW Zn-HA s. c. daily and clinical data thereof were obtained from day 10 to day 28 and day 5 to day 22, respectively, after the EAE had been induced. The results were calculated from the average daily clinical data to give the average summed up clinical data (ASC).
In the studies summarized in Tables 1 to 4 each mouse used as EAE model received 200 μl s. c. injection each; the injection contained the active ingredient or the carrier (0.9% sodium chloride aqueous solution). To obtain the doses given in terms of mg/kg bodyweight above solutions of different concentration were prepared as follows: […]

EAE = conditions: rabbits, intramuscularly; cited from earlier work
[2] = biological target: matrix metalloproteinases, particularly the MMP-9 (Homo sapiens, UniProt P14780); conditions: cited from earlier work
[3] = compared with the sodium-HA salt; cited from earlier work

Chain of matrix metalloproteinases, particularly the MMP-9 (P14780 94-707): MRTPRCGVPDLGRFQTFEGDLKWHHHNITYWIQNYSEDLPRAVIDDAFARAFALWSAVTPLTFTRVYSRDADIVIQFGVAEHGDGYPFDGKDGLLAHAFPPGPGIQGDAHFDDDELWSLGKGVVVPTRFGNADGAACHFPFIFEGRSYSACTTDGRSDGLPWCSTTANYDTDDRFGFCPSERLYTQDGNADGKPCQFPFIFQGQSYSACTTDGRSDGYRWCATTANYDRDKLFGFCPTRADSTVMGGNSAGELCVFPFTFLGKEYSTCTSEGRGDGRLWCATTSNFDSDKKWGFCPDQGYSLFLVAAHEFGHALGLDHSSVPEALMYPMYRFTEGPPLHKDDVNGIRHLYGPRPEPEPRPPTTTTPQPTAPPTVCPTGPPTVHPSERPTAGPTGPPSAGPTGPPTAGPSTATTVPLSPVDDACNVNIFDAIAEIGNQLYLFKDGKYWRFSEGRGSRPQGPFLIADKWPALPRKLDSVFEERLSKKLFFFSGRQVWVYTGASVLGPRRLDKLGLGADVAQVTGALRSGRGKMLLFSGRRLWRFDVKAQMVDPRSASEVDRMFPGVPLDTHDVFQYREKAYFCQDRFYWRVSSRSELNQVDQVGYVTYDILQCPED

| Compound | ASC (treatment from day 5 to day 22) [1] | Effect on the EAE model (in words) [1] | Effect on the EAE model (in words) ([1]; listed as Zn^2+) | Effect on development of EAE (in words) (EAE) | Effect on the EAE model (in words) ([1]; listed as Na-HA) | Effect on the EAE model (in words) ([1]; listed as Na-HA salt) | Effect on the EAE model (in words) ([1]; listed as Na-hyaluronan) | Inhibitory effect on tissue damaging enzymes (matrix metalloproteinases, particularly the MMP-9) [2] | Antioxidant activity [3] |
| --- | --- | --- | --- | --- | --- | --- | --- | --- | --- |
| [Cl-].[Cl-].[Zn+2] [ZnCl2, zinc chloride] | 14.2 ± 3.3 | did not show significant effect | ineffective |  |  |  |  |  |  |
| Na-hyaluronan [HMW Na-HA] | 14.2 ± 1.9 |  |  | did not inhibit, but in certain cases did assist the development of EAE | ineffective | ineffective; also recorded: did not show significant effect | didn't exert any influence | does not show the latter effect |  |
| zinc-hyaluronan complex [zinc-HA] |  |  |  |  |  |  |  | inhibitory effect | increased antioxidant activity |
